Our source for the IC50 and EC50 values is patent publication US8450354B2, “Substituted imidazo[1,2-b]pyridazine derivatives, pharmaceutical compositions, and methods of use as β-secretase inhibitors” (High Point Pharmaceuticals, LLC, priority 2010, dated 2013).

For the first assay, the target named is T1, BACE-1 enzyme (Homo sapiens, UniProt P56817).
T1 construct: purchased R & D Systems 931AS
T1 sequence (P56817 46-457 limits assumed): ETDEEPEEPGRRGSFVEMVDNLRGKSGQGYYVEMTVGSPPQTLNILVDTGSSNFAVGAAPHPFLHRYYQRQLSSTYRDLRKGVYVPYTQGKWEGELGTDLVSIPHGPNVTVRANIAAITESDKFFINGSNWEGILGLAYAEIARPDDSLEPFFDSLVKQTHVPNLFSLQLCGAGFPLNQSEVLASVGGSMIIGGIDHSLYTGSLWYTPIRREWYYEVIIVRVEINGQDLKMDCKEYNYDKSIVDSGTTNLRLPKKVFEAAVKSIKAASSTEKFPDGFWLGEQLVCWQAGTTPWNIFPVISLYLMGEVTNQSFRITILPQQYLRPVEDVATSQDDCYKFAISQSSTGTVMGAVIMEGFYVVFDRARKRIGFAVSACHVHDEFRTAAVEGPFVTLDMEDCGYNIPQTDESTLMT
Briefly: BACE Fluorescence Resonance Energy Transfer (FRET) Assay. It counts as biochemical. Particulars: pH 4-4.5, 30 min pre-incubation, about 1.5 hours reaction, asterisk = mean. The protocol: BACE Fluorescence Resonance Energy Transfer (FRET) Assay
In the following assay, the proteolytic activity of BACE is measured by observing cleavage of a fluorescent group from a peptide substrate containing a rhodamine fluorescent donor and a quenching acceptor.
The inhibitory activity of compounds of Formula (I) may be compared to a statine derived control inhibitor STA200 (MP Biomedical Cat. #STA-200). The cleavage reaction occurs when a BACE-1 substrate (Invitrogen, Cat. #P2986) was added to a reaction mixture containing BACE-1 enzyme (R & D Systems, Cat. #931AS) and allowed to proceed for about 1.5 hours. Fluorescence, used as a marker of BACE activity, is monitored using 540 nm excitation and 585 nm emission wavelengths (Envision, Perkin Elmer).
A typical assay reaction contains BACE-1 enzyme-in assay buffer (50 mM sodium acetate, pH 4-4.5, 0.01% CHAPS (3-[(3-Cholamidopropyl)dimethylammonio]-1-propanesulfonate), 0.0125% TritonX-100, 0.006% EDTA) which is pre-incubated for 30 minutes with test compound in 7.5% DMSO. The reaction is initiated with the addition of BACE-1 substrate in assay buffer and allowed to proceed for about 1.5 hours at room temperature. Assays are conducted in black 384-well microtiter plates and scanned at room temperature using 540 nm excitation and 585 nm emission wavelengths.
In some instances, the percent inhibition at a given concentration is reported instead of the IC50.
As usually defined, the IC50 is the concentration needed to halve the response being measured. A higher IC50 goes with a need for much substance. `O=C(Nc1nc2cc(-c3cccc(OC(F)(F)F)c3)ccc2[nH]1)c1cn2nc(OCCn3cncn3)ccc2n1` [Example 29]: 0.314 µM corresponded to half-maximal inhibition (IC50). In turn, `CCCC[C@H](O)COc1ccc2nc(C(=O)Nc3nc4cc(-c5cc(F)cc(Cl)c5)ccc4[nH]3)cn2n1` [Example 127] gave an IC50 of 0.163 µM. On to `O=C(Nc1nc2cc(-c3ccc(Cl)c(C(F)(F)F)c3)ccc2[nH]1)c1cn2nc(OCCN3CCOCC3)ccc2n1` [Example 64], for which it took 0.22 µM to reach half-maximal inhibition (IC50). On the same count and under the same terms, the value for `CN(C)CC(O)COc1ccc2nc(C(=O)Nc3nc4cc(-c5cccc(C(F)(F)F)c5)ccc4[nH]3)cn2n1` (stereo not shown) [Example 110] was 0.268 µM; that for `CCOCCOc1ccc2nc(C(=O)Nc3nc4cc(-c5cccc(C(F)(F)F)c5)ccc4[nH]3)cn2n1` [Example 22] was 0.249 µM. On to `COCCOc1ccc2nc(C(=O)Nc3nc4cc(-c5ccc(Cl)c(C(F)(F)F)c5)ccc4[nH]3)cn2n1` [Example 62], for which half-maximal inhibition (IC50) required 0.335 µM. `CN(CCOc1ccc2nc(C(=O)Nc3nc4cc(-c5cccc(OC(F)(F)F)c5)ccc4[nH]3)cn2n1)c1ccccn1` [Example 37] gave a half-maximal inhibitory concentration (IC50) of 0.322 µM. For `COc1ccc2nc(C(=O)Nc3nc4cc(OCc5ccccc5)ccc4[nH]3)cn2n1` [Example 4], the half-maximal inhibitory concentration (IC50) was determined as 0.105 µM. The compound `O=C(Nc1nc2cc(-c3cc(F)cc(Cl)c3)ccc2[nH]1)c1cn2nc(OCCNC3CCCCC3)ccc2n1` [Example 51] returned an IC50 of 0.173 µM.

Turning to `CN(CCOc1ccc2nc(C(=O)Nc3nc4cc(-c5cccc(C(F)(F)F)c5)ccc4[nH]3)cn2n1)c1ccccn1` [Example 44], 0.241 µM corresponded to half-maximal inhibition (IC50). Regarding `CC(C)(C)NCCOc1ccc2nc(C(=O)Nc3nc4cc(-c5cccc(OC(F)(F)F)c5)ccc4[nH]3)cn2n1` [Example 30], the half-maximal inhibitory concentration (IC50) was 0.27 µM. As to `CC(C)N(CCOc1ccc2nc(C(=O)Nc3nc4cc(-c5cccc(C(F)(F)F)c5)ccc4[nH]3)cn2n1)C(C)C` [Example 42], the concentration for half-maximal inhibition (IC50) turned out to be 0.365 µM. In the case of `CC1(C)CCC(c2ccc3[nH]c(NC(=O)c4cn5nc(C6CCNCC6)ccc5n4)nc3c2)CC1` [Example 82], the IC50 worked out at 1.07 µM. Still for that read-out and setting: next, `CC(C)(C)NCCOc1ccc2nc(C(=O)Nc3nc4cc(-c5cc(F)cc(Cl)c5)ccc4[nH]3)cn2n1` [Example 52]: 0.223 µM; `CNCCOc1ccc2nc(C(=O)Nc3nc4cc(-c5cc(F)cc(Cl)c5)ccc4[nH]3)cn2n1` [Example 14]: 0.152 µM; `O=C(O)CCNc1ccc2nc(C(=O)Nc3nc4cc(-c5cccc(Cl)c5)ccc4[nH]3)cn2n1` [Example 96]: 0.328 µM. For the compound `O=C(Nc1nc2cc(-c3cccc(OC(F)(F)F)c3)ccc2[nH]1)c1cn2nc(OCCN3CCCCCC3)ccc2n1` [Example 34], the midpoint of inhibition, the IC50, lay at 0.27 µM. Still for that read-out and setting: next, `O=C(Nc1nc2cc(-c3cccc(C(F)(F)F)c3)ccc2[nH]1)c1cn2nc(OCCN3CCCC3)ccc2n1` [Example 71]: 0.327 µM. Compound `CC1(C)CCC(c2ccc3[nH]c(NC(=O)c4cn5nc(OC6CCC(O)CC6)ccc5n4)nc3c2)CC1` (stereo not shown) [Example 88] showed a half-maximal inhibitory concentration (IC50) of 0.476 µM.

With `O=C(Nc1nc2cc(-c3cccc(C(F)(F)F)c3)ccc2[nH]1)c1cn2nc(N[C@H]3CCNC3)ccc2n1` [Example 78], 0.337 µM corresponded to half-maximal inhibition (IC50). With `CN(C)CCOc1ccc2nc(C(=O)Nc3nc4cc(-c5ccc(Cl)c(C(F)(F)F)c5)ccc4[nH]3)cn2n1` [Example 63], the IC50 was 0.361 µM. The same measure, in the same setting: the value for `C[C@@H](CO)Oc1ccc2nc(C(=O)Nc3nc4cc(-c5cccc(OC(F)(F)F)c5)ccc4[nH]3)cn2n1` [Example 103] was 0.334 µM; that for `CNCCOc1ccc2nc(C(=O)Nc3nc4cc(-c5cccc(C(F)(F)F)c5)ccc4[nH]3)cn2n1` [Example 70] was 0.381 µM; that for `CC(C)NCCOc1ccc2nc(C(=O)Nc3nc4cc(-c5cccc(C(F)(F)F)c5)ccc4[nH]3)cn2n1` [Example 38] was 0.27 µM.

Turning to `O=C(Nc1nc2cc(-c3cccc(C(F)(F)F)c3)ccc2[nH]1)c1cn2nc(N3CCOCC3)ccc2n1` [Example 65], the IC50 worked out at 0.238 µM. For the compound `CN(C)CCN(C)CCOc1ccc2nc(C(=O)Nc3nc4cc(-c5cccc(OC(F)(F)F)c5)ccc4[nH]3)cn2n1` [Example 36], the concentration for half-maximal inhibition (IC50) is 0.332 µM. On to `N[C@H]1CCN(c2ccc3nc(C(=O)Nc4nc5cc(-c6cccc(C(F)(F)F)c6)ccc5[nH]4)cn3n2)C1` [Example 77], for which it took 0.242 µM to reach half-maximal inhibition (IC50). Regarding `N[C@@H]1CCN(c2ccc3nc(C(=O)Nc4nc5cc(-c6cccc(C(F)(F)F)c6)ccc5[nH]4)cn3n2)C1` [Example 76], half-maximal inhibition (IC50) was put at 0.23 µM.

`CN(C)CCOCCOc1ccc2nc(C(=O)Nc3nc4cc(-c5cccc(OC(F)(F)F)c5)ccc4[nH]3)cn2n1` [Example 56] returned an IC50 of 0.176 µM. `O=C(O)COc1ccc2nc(C(=O)Nc3nc4cc(-c5cccc(C(F)(F)F)c5)ccc4[nH]3)cn2n1` [Example 97]: the IC50 worked out at 0.161 µM.

As to `O=C(Nc1nc2cc(-c3cc(F)cc(Cl)c3)ccc2[nH]1)c1cn2nc(OCC[C@@H](O)CO)ccc2n1` [Example 129], the IC50 stood at 0.293 µM.

In turn, `CN1CCC(Oc2ccc3nc(C(=O)Nc4nc5cc(-c6cc(F)cc(Cl)c6)ccc5[nH]4)cn3n2)CC1` [Example 18] came in with a half-maximal inhibitory concentration (IC50) of 0.219 µM. Consider `O=C(Nc1nc2cc(-c3cccc(OC(F)(F)F)c3)ccc2[nH]1)c1cn2nc(OCCN3CCCC3)ccc2n1` [Example 21], for which the concentration for half-maximal inhibition (IC50) is 0.318 µM. Take `CO[C@@H]1CCN(c2ccc3nc(C(=O)Nc4nc5cc(C6CCC(C)(C)CC6)ccc5[nH]4)cn3n2)C1` [Example 89]: the IC50 was 0.16 µM. Turning to `CC(C)N(CCOc1ccc2nc(C(=O)Nc3nc4cc(-c5cc(F)cc(Cl)c5)ccc4[nH]3)cn2n1)C(C)C` [Example 48], the 50% inhibitory concentration (IC50) was 0.315 µM. The compound `O=C(Nc1nc2cc(-c3cc(F)cc(Cl)c3)ccc2[nH]1)c1cn2nc(OC3CCOCC3)ccc2n1` [Example 16] came in with a concentration for half-maximal inhibition (IC50) of 0.289 µM. `O=C(Nc1nc2cc(C3CCCC3)ccc2[nH]1)c1cn2nc(N3CC[C@@H](O)C3)ccc2n1` [Example 95] came in with an IC50 of 0.431 µM. Same read-out and setting: the value for `CC(C)OCCOc1ccc2nc(C(=O)Nc3nc4cc(-c5cccc(C(F)(F)F)c5)ccc4[nH]3)cn2n1` [Example 23] was 0.272 µM. The compound `CCN(CC)CCCOc1ccc2nc(C(=O)Nc3nc4cc(-c5cc(F)cc(Cl)c5)ccc4[nH]3)cn2n1` [Example 20] yielded an IC50 of 0.205 µM.

For `NCCOc1ccc2nc(C(=O)Nc3nc4cc(-c5cccc(C(F)(F)F)c5)ccc4[nH]3)cn2n1` [Example 60], the half-maximal inhibitory concentration (IC50) amounted to 0.14 µM.

System in a further assay: not listed separately
As to the kind of experiment: Aβ Cell Based Assay (Aβ1-40 secretion, ELISA). On the set-up: species or system human. As to conditions: Homo sapiens, HEK293; HEK-APPwt cells, 6 hours incubation, reduction of Aβ1-40 secretion; asterisk = mean. The protocol: Aβ Cell Based Assay Procedure
In the following assay, the proteolytic activity of BACE in cells exposed to varying concentrations of a compound of interest is measured by observing the amount of Aβ1-40 secreted from HEK293 cells (Human Embryonic Kidney epithelial cell line) stably expressing wildtype human APP695 protein (HEK-APPwt cells).
HEK-APPwt cells were grown in high glucose DMEM (Dulbecco's Modified Eagles Medium SIGMA Cat. #D5796) supplemented with 25 mM HEPES (4-(2-hydroxyethyl)-1-piperazineethanesulfonic acid) (pH 7.4) (Invitrogen Cat. #15630-114), 0.1 mM NEAA (Non-essential Amino Acids) (BioWhittaker Cat. #13-114E), 10% fetal bovine serum (SIGMA Cat. #F4135) and 250 μg/mL hygromycin (Invitrogen Cat. #10687-010) in T-225 flasks at 37° C. with 5% CO2 and humidity control.
Test compounds were initially prepared in DMSO and diluted with DMEM media containing 2% FBS (Fetal bovine serum). Ten standard compound solutions were prepared having a range of concentrations. The standard compound solutions were used to determine the EC50 of the test compound. The range of concentrations chosen may depend on the compound's predicted potency.
To prepare cells for the assay, a flask containing HEK-APPwt cells were trypsinized briefly (1 mL trypsin), and once the cells detached, 4 mL of 10% FBS-DMEM was added to the flask. The detached cells were centrifuged at 900 rpm for 5 min to form a pellet.
The HEK-APPwt cell pellet was re-suspended with 10 mL DMEM media containing 2% FBS. 80 μL of the cell suspension was added to each well of a 96-well cell culture plate to give 100×10^4 cells/ml. 10 μL of a standard compound solution was added to each well of the 96-well cell culture plate followed by 10 μL of Alamar blue solution. The cells were incubated at 37° C. in a 5% CO2 incubator for 6 hours.
At the end of the incubation, the plates were removed from incubator, and the supernatant was collected. Aβ1-40 concentration in the medium was measured by using a commercial Aβ1-X ELISA kit (IBL, Japan Cat. #27729). Briefly, the ELISA plates were coated with an anti-human Aβ (N)(82E1) mouse IgG monoclonal antibody. A horseradish peroxidase conjugated anti-human Aβ11-28 mouse IgG monoclonal antibody was used for detection. The cell culture supernatant was diluted with EIA buffer+protease inhibitors (kit buffer containing protease inhibitors (1 mL PI/30 mL buffer)). A 100 μL aliquot of the diluted supernatant was added to each well of the ELISA plate and incubated for 6 hrs at 4° C. The ELISA plate was washed 8 times with phosphate buffered saline (PBS) containing 0.05% TWEEN 20.
A 100 μL of detection antibody was then added and incubated for 1 hour at 4° C. The plate was washed 8 times with PBS buffer containing 0.05% Tween 20 followed by addition of 100 μL of the chromogen tetramethylbenzidine (TMB). The plate was incubated in the dark at room temperature for about 30 min and a stop solution (1N H2SO4) was added.
The intensity of the color developed was measured at 450 nm. The optical density at 450 nm (OD450) is proportional to the concentration of human Aβ1-40 secreted by the cell. As a reference, N—[N-(3,5-difluorophenacetyl-L-alanyl)]—S-phenylglycine t-butyl ester (DAPT, a γ-secretase inhibitor) was used to indicate 100% inhibition of […]. Thus, the assay measures the ability of a compound of interest to reduce Aβ1-40 secretion. Compound potency is reported in Table 3 as the EC50 by calculating the percent inhibition at all concentration levels and the data were fit with non-linear curve fitting algorithm using GraphPad Prism.
On the technique in general: In an ELISA, binding on a coated surface is turned into a signal by an enzyme label.
In general, EC50 refers to the concentration giving half of the maximal effect. The low end stands for higher potency in that assay, the high end for lower potency in that assay. The compound `O=C(Nc1nc2cc(-c3cccc(OC(F)(F)F)c3)ccc2[nH]1)c1cn2nc(OCCn3cncn3)ccc2n1` [Example 29] displayed an EC50 of 2.58 µM. `CCCC[C@H](O)COc1ccc2nc(C(=O)Nc3nc4cc(-c5cc(F)cc(Cl)c5)ccc4[nH]3)cn2n1` [Example 127]: the 50% effective concentration (EC50) stood at 0.71 µM. The same measure, in the same setting: next, `O=C(Nc1nc2cc(-c3ccc(Cl)c(C(F)(F)F)c3)ccc2[nH]1)c1cn2nc(OCCN3CCOCC3)ccc2n1` [Example 64]: 0.97 µM.
